In patent US10335382B2, “Use of hydrogen sulfide synthesis inhibitors for cancer therapy” (THE BOARD OF REGENTS OF THE UNIVERSITY OF TEXAS SYSTEM, priority 2013, dated 2019):
“Also recorded” adds a separate entry of the source.

Assays:
[1] = tested on: peritumor microvessel blood flow; assay: Tumor microvascular blood flow (laser Doppler); format: in vivo, mice; conditions: intratumoral injection; AOAA 9 mg/kg, L-cysteine 1 mg/kg
Method: FIG. 6. L-Cysteine increases, while AOAA reduces microvessel blood flow in tumor bearing mice. Tumor bearing mice were anesthetized by i.p. injection of ketamine-xylazine and a laser Doppler (PeriFlux system 5000) was placed on top of the tumor for microvessel blood flow measurements. After a stabilization period, L-Cys or AOAA were injected subcutaneously in proximity of the tumor. […] Data represent mean±SEM of n=6 determinations.
Skin microvascular blood flow was measured using a PeriFlux 5000 laser-Doppler flowmeter. Mice bearing PTX were anesthetized by ketamine-xylazine (i.p.). The laser-Doppler probe was placed on top of the tumors and a stable basal signal was recorded. Changes in the subcutaneous microcirculatory perfusion were detected following intratumoral injections of either L-cysteine (1 mg/kg) or AOAA (9 mg/kg).

HCT116 colon cancer cell [2] = assay: HCT116 colon cancer cell proliferation (xCELLigence); format: cell-based, human; conditions: AOAA 1 mM; 36 hours
HCT116 colon cancer cell [3] = conditions: cell-based assays (Szabo et al. 2013); cited from earlier work
[4] = tested on: patient-derived colon cancer xenografts; assay: Patient-derived tumor xenograft (PDTX) growth; format: in vivo, nu/nu mice; conditions: AOAA 9 mg/kg/day s.c.
Method: Nu/nu Balb/C female mice (8-10 weeks) were injected subcutaneously in the right and left dorsum (10^6 cells/side with HCT-116 cells). One week later, the mice were randomized and subcutaneous injections of phosphate buffered saline (PBS) or AOAA (9 mg/kg/day) were performed 6 days/week. Tumor diameters were measured transcutaneously using calipers and tumor volumes were calculated using the formula V=(π/6)hd^2. T-test comparisons of the tumor volumes and final weights at harvest were performed. Xenotrials with patient-derived xenografts (PTX) were performed on nu/nu mice implanted subcutaneously with a piece of Passage 2 tumor measuring 2-5 mm^3 each. When a small palpable tumor was evident at 7-10 days, the mice with tumor take were randomized and subjected to subcutaneous injection of vehicle or AOAA (9 mg/kg/day) 6 days/week. Specimens were fixed with 10% formalin and embedded in paraffin. 5 μm sections were stained with hematoxylin and eosin. Each in vivo experiment was repeated at least twice.

CBS = target: T1, CBS (Homo sapiens, UniProt P35520); assay: H2S production in colon cancer tissue extracts (methylene blue method); format: biochemical; parameters: from tissue; host or cells: human colorectal tumor tissue and patient-matched normal mucosa homogenates; conditions: AOAA 1 mM; L-cysteine 3 mM, L-homocysteine 0.5 mM, 37° C., 30 min
T1 sequence (P35520 1-551): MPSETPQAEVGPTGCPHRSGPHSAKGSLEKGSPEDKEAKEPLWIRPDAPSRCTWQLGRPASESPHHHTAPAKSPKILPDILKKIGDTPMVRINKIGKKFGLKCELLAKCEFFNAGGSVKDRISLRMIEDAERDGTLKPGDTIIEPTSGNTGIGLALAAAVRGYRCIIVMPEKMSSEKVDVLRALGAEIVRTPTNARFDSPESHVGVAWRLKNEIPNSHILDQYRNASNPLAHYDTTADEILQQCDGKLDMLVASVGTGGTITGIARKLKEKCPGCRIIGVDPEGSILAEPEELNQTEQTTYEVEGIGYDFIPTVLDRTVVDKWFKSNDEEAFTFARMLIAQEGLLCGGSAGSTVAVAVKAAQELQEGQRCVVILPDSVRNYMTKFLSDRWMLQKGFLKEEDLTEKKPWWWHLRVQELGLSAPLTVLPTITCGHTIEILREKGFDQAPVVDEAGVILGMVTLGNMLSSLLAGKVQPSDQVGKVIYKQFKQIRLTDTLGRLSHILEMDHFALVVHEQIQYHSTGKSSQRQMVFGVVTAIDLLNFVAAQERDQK
Text: FIG. 1. CBS is overexpressed in human colorectal cancer. (A) Representative Western blot of CBS, CSE and 3-MST protein expression in human colorectal cancer specimens, paired with the corresponding normal mucosa tissues. PVDF membranes were probed with rabbit polyclonal antibodies against CBS, CSE and 3-MST. […] (C, D) CBS was highly expressed in three different colon cancer cell lines (LoVo, HCT116 and HT29); low expression was detected in the non-tumorigenic normal colon mucosa cells (NCM356) (arbitrary relative densitometric units were normalized with β-actin using image analysis software) (*p<0.05 vs NCM356 cells) (E) or in colon cancer cell lines (F) by the methylene blue method. H2S production was stimulated in tissue or cell lysates by incubation at 37° C. (30 min) in presence of the CBS substrates L-cysteine (3 mM) and L-homocysteine (0.5 mM). […] Western blots show representatives of at least n=3 experiments; H2S measurements represent mean±SEM of at least n=3 determinations.
H2S production can be measured in a tissue homogenate by using a methylene blue assay. Briefly, 1% zinc acetate is added to a tissue homogenate to trap H2S followed by 10% trichloroacetic acid to precipitate proteins. […] The absorbance of the resulting solution is measured at 655 nm. H2S content is calculated against a calibration curve of standard H2S solutions. […]

SMILES: NOCC(=O)O [AOAA, aminooxyacetic acid]
- peritumor / skin microvessel blood flow [1]: significantly reduced; also recorded: marked decrease
- HCT116 cell proliferation (HCT116 colon cancer cell [2]): markedly reduced
- concentrations at which antiproliferative effects and effects on cellular energetics manifest in cell-based assays (HCT116 colon cancer cell [3]): higher (millimolar) concentrations
- PDTX growth, second patient with stage II disease and mutant Kras allele [4]: growth inhibitory effects
- rate of PDTX growth, patient with stage III disease and Kras mutation [4]: reduced rate
- H2S-producing activity of CBS in tissue extracts (CBS): blocked the H2S-producing activity
